From publication PMC6367340, “Novel insights into P450 BM3 interactions with FDA-approved antifungal azole drugs” (Scientific Reports, 2019)
“Also recorded” adds a separate entry of the source. Where two headings read alike, the source gives them in different places.

What was measured:
[1] = biological target: T1, BM3 A82F/F87V double mutant (DM) heme domain (Priestia megaterium, UniProt P14779, A83F/F88V); assay: biochemical; format: binding, Bacillus megaterium; settings: for Delta Abs Peak (wavelength maximum of absorbance difference spectrum) / Delta Abs Trough (wavelength minimum of absorbance difference spectrum) / Delta Abs/Soret Peak / Soret Shift (final Soret wavelength at apparent saturation): DM BM3 heme domain; for Delta Abs/Soret Peak: maximal peak-minus-trough value divided by P450 Soret peak value; for Soret Shift (final Soret wavelength at apparent saturation): starting wavelength 418 nm
T1 construct: The BM3 heme domain proteins (WT and the DM A82F/F87V variant) used in this study were expressed as described in our previous studies; made in house; host or cells: E. coli BL21 (DE3)
Excerpt: (§1) This leads to dioxygen (O2) binding to heme iron and to the progression of the P450 catalytic cycle that leads to monooxygenation of the substrate. […] P450 UV-visible binding assays and other spectroscopic studies using azoles are often hindered by the low solubility of many of these drugs. […] The azoles used range widely in size and structure, and contain either an imidazole or a triazole functional group (or two triazole groups in the case of fluconazole). […] Spectral binding data were fitted using hyperbolic (Michaelis-Menten)[30] or tight-binding (Morrison)[31] equations, or by using the Hill function[32] in cases where there was a clear sigmoidal dependence of heme absorbance change on azole drug concentration.
(§2) Experiments were performed using a Cary 50 UV-Visible spectrophotometer (Agilent Technologies Ltd). WT and DM heme domains at concentrations of ~2–4 μM were used, and binding titrations were done by the addition of small (typically 0.2–0.4 μL) volumes of azole ligand stocks (1, 10 or 30 mM, to minimize amounts of solvent carrier used) to a 1 mL heme domain sample in a quartz cuvette. An extinction coefficient of 95 mM^−1 cm^−1 was used for the low-spin forms of the WT and DM heme domains. […] Azole drugs were obtained from Merck Chemicals (Nottingham, UK). All azole compounds used in these and other experiments done in this manuscript were sourced from Sigma Aldrich (Cambridge, UK).
(§3) Data were processed by the subtraction of the spectrum of each successive ligand-bound form (from a specific titration set) from the spectrum of the ligand-free enzyme. This produced a set of difference spectra (for each particular azole titration), from which wavelengths associated with the absorbance minimum (Amin) and maximum (Amax) were readily identified. For each titration point, an absorbance difference value was calculated as Amax minus Amin, using the same wavelength pair throughout an individual experiment. These values were then plotted against the relevant azole ligand concentrations used. […] Assays were done using 25 mM KPi (pH 7) at a constant temperature of 30 °C.

WT BM3 heme domain = biological target: T2, WT BM3 heme domain (Priestia megaterium, UniProt P14779); assay: biochemical; format: binding, Bacillus megaterium; settings: for Delta Abs/Soret Peak: maximal peak-minus-trough value divided by P450 Soret peak value; for Soret Shift (final Soret wavelength at apparent saturation): starting wavelength 418 nm
T2 construct: The BM3 heme domain proteins (WT and the DM A82F/F87V variant) used in this study were expressed as described in our previous studies; made in house; host or cells: E. coli BL21 (DE3)
Excerpt: as §1, §2, §3

P450 BM3 (CYP102A1) = tested on: P450 BM3 (CYP102A1); parameters: method as in PMID 10191269; settings: arachidonic acid as the substrate; cited from earlier work
[2] = DM (A82F/F87V) BM3 heme domain, 25 mM KPi pH 7, 30 °C

T2 sequence (P14779 2-472): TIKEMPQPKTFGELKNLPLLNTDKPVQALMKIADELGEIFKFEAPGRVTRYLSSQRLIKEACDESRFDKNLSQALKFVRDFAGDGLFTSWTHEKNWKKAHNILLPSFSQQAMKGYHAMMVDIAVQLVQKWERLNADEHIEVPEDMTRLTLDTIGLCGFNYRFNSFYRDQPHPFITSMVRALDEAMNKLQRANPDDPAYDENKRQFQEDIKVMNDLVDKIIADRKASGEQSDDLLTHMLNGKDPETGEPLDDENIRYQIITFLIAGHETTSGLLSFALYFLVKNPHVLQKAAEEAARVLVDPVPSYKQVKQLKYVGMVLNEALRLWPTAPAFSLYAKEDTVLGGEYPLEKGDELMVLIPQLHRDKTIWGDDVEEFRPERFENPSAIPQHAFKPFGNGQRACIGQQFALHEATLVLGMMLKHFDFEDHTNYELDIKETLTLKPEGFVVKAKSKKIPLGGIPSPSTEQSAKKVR
T1 sequence (P14779 2-472 A83F/F88V): as the sequence (P14779 2-472) above, with A82F, F87V counted along it

Compound	Delta Abs Peak (wavelength maximum of absorbance difference spectrum) [1] [nm]	Delta Abs Trough (wavelength minimum of absorbance difference spectrum) [1] [nm]	Delta Abs/Soret Peak [1]	Soret Shift (final Soret wavelength at apparent saturation) [1] [nm]	Kd [1, 2] [nM]	Kd (WT BM3 heme domain) [µM]	Delta Abs Peak (wavelength maximum of absorbance difference spectrum) (WT BM3 heme domain; WT BM3 heme domain) [nm]	Delta Abs Trough (wavelength minimum of absorbance difference spectrum) (WT BM3 heme domain; WT BM3 heme domain) [nm]	Delta Abs/Soret Peak (WT BM3 heme domain; WT BM3 heme domain)	Soret Shift (final Soret wavelength at apparent saturation) (WT BM3 heme domain; WT BM3 heme domain) [nm]	Soret spectral shift / heme absorbance change on titration (in words) (WT BM3 heme domain; WT BM3 heme domain)	Kd ([1]; DM enzyme, Figure S1 legend, tight-binding (Morrison) fit) [nM]	Tighter binding to DM heme domain than to WT heme domain ([1]; DM versus WT heme domain)	Kd (WT BM3 heme domain; Kd, WT BM3 heme domain, 25 mM KPi pH 7, 30 °C, NB = no binding seen in UV-visible spectroscopic titrations) [µM]	catalytic rate for substrate oxidation (P450 BM3 (CYP102A1))
Clc1ccc(CCC(Cn2ccnc2)Sc2c(Cl)cccc2Cl)cc1 (stereo not drawn) [Butoconazole nitrate]	433	413	0.47	424	470 ± 20	3.8 ± 0.12	434	413	0.35	422	–	–	–	–	–
CCC(C)n1ncn(-c2ccc(N3CCN(c4ccc(OCC5COC(Cn6cncn6)(c6ccc(Cl)cc6Cl)O5)cc4)CC3)cc2)c1=O (stereo not drawn) [Itraconazole]	438	414	0.16	421	50 ± 10	–	–	–	–	–	failed to induce a Soret spectral shift of sufficient extent to allow Kd determination; also recorded: no significant spectral shifts	–	–	–	–
Clc1ccc(C(Cn2ccnc2)OCc2c(Cl)cccc2Cl)c(Cl)c1 (stereo not drawn) [Isoconazole nitrate]	435	415	–	–	440 ± 20	12 ± 0.5	436	415	–	–	–	–	–	–	–
c1ccc(-c2ccc(C(c3ccccc3)n3ccnc3)cc2)cc1 (stereo not drawn) [Bifonazole]	436	413	0.42	425	130 ± 50	3.54 ± 0.05	434	413	0.43	423	–	130 ± 20	–	–	–
Clc1ccc(C(Cn2ccnc2)OCc2ccc(Sc3ccccc3)cc2)c(Cl)c1 (stereo not drawn) [Fenticonazole nitrate]	434	414	0.44	424	520 ± 30	1.89 ± 0.05	434	415	0.21	419	–	–	–	–	–
CC(C)(C)C(=O)C(Oc1ccc(Cl)cc1)n1ccnc1 (stereo not drawn) [Climbazole]	430	408	0.50	424	320 ± 10	1.52 ± 0.02	433	413	0.43	424	–	–	–	–	–
OC(Cn1cncn1)(Cn1cncn1)c1ccc(F)cc1F [Fluconazole]	434	414	0.19	421	2910 ± 200	–	–	–	–	–	failed to induce a Soret spectral shift of sufficient extent to allow Kd determination	–	–	–	–
C[C@@H](c1nc(-c2ccc(C#N)cc2)cs1)[C@](O)(Cn1cncn1)c1ccc(F)cc1F [Ravuconazole]	434	413	0.21	422	340 ± 20	–	–	–	–	–	failed to induce a Soret spectral shift of sufficient extent to allow Kd determination; also recorded: no significant spectral shifts	–	–	–	–
C[C@@H](c1ncncc1F)[C@](O)(Cn1cncn1)c1ccc(F)cc1F [Voriconazole]	435	414	0.21	420	1900 ± 130	–	–	–	–	–	failed to induce a Soret spectral shift of sufficient extent to allow Kd determination	–	–	–	–
Clc1ccc(C(Cn2ccnc2)OCc2ccsc2Cl)c(Cl)c1 (stereo not drawn) [Tioconazole]	434	414	0.44	423	390 ± 30	–	434	414	0.29	422	–	–	~ 50 fold	24.5 ± 1.1	–
CCCCC/C=C\C/C=C\C/C=C\C/C=C\CCCC(=O)O [arachidonic acid]	–	–	–	–	–	–	–	–	–	–	–	–	–	–	~ 285 s^−1
CC[C@@H]([C@H](C)O)n1ncn(-c2ccc(N3CCN(c4ccc(OC[C@@H]5CO[C@@](Cn6cncn6)(c6ccc(F)cc6F)C5)cc4)CC3)cc2)c1=O [Posaconazole]	430	395	0.41	422	2690 ± 50	–	–	–	–	–	failed to induce a Soret spectral shift of sufficient extent to allow Kd determination; also recorded: no significant spectral shifts	–	–	–	–
Clc1ccc(C(Cn2ccnc2)OCc2csc3c(Cl)cccc23)c(Cl)c1 (stereo not drawn) [Sertaconazole nitrate]	433	413	0.45	423	460 ± 10	2.44 ± 0.14	439	416	0.08	419	–	–	–	–	–
